Entries after “also recorded” stand apart in the source; their conditions may differ. Where two headings read alike, the source gives them in different places.
Tests used:
[1] = test system: BJ cell system (BJ-TERT, BJ-TERT/LT/ST, BJ-TERT/LT/ST/RAS^V12, DRD cells); test: Alamar blue potency and selectivity in the engineered BJ cell system; details: oncogenic-RAS-expressing vs non-oncogenic-RAS-expressing BJ cells; alamar blue
Procedure: Empty “step-daughter plates” were filled with 50 μL DMEM, except for columns 3 and 13, where 100 μL of hit compound solution were cherry-picked from daughter plates. After compound transfer, 2-fold dilution series across columns 3 through 12 and columns 13 through 22 was made by transferring 50 μL of compound solution to the next column successively (10-point dilution series), with extensive mixing. Hit-picking and 2-fold dilution series were carried out using Biomek FX Span-8 module (Beckman Coulter). Assay plates were prepared by seeding 1,000 BJ-TERT, BJ-TERT/LT/ST, and BJ-TERT/LT/ST/RAS^V12 cells per well in 36 μL growth medium. Cells in assay plates were treated with compounds from step-daughter plates by transferring 4 μL. The final concentration of the compound was 5.33 μg/mL to 0.01 μg/mL in this 10-point, 2-fold dilution series. Assay plates were returned to the culture incubator and maintained for 48 hours before adding alamar blue.
Fresh daughter plates were made from the mother plate and cherry-picked hits from the first round, 2-fold dilution series experiment as described above. Assay plates were prepared by seeding 1,000 BJ-TERT, BJ-TERT/LT/ST, BJ-TERT/LT/ST/RAS^V12 or BJ-TERT/p53DD/CDK4/cyclinD1/ST/RAS^V12 (DRD) cells per well in 32 μL growth media. Cells in the assay plates were treated with compounds from the step-daughter plate by transferring 8 μL solution. The final concentration of the compound was 10.66 μg/mL to 0.02 μg/mL in a 10-point, 2-fold dilution series manner. Assay plates were returned to the culture incubator and maintained for 48 hours before adding alamar blue.
Cells were seeded in 384-well assay plates, treated with candidate compounds, and incubated in the culture incubator in 40 μL culture volume per well. […] Plates were incubated further for 16 hours to allow reduction of alamar blue, which results in the generation of red fluorescence. The fluorescence intensity was determined using a Victor 3 plate reader (Perkin Elmer) with a 535 nm excitation filter and a 590 nm emission filter.
In the subsequent two-fold dilution series testing, selectivity was calculated as the ratio of GI50 values in BJ-TERT/LT/ST and BJ-TERT/LT/ST/RAS^V12 cells. […] DRD cells are also derived from BJ primary cells and the effects of mutations in both lines should be similar.

HCT-116 = test: NCI60 anti-cancer screening
[2] = test system: BJ-derived cell lines (BJ-TERT/LT/ST/RAS^V12 cells); test: Vi-Cell analysis (trypan blue exclusion); assay type: cell-based, human; details: 24 hours
Procedure: 200,000 cells were seeded in 6-well plates and treated with the indicated amount of 2-fold dilution series concentration of a candidate compound in 2 mL BJ growth medium. After 24 hours, cells were released with trypsin/EDTA, harvested in 1.1 mL growth medium, and transferred to a Vi-Cell (Beckman Coulter) disposable cup. After, trypan blue staining, 100 images of sample were taken and analysis of the images was carried out automatically by a Vi-Cell cell viability analyzer (Beckman Coulter).

DU-145 = test: NCI60 anti-cancer screening
NCI-H522 = test: NCI60 anti-cancer screening
[3] = test system: BJ-TERT/LT/ST/RAS^V12 cells; test: Counter screening with iron chelators; assay type: cell-based, human; details: DFOM and three additional iron-binding compounds; 24 hours
Procedure: Cells were treated with iron chelators by transferring 4 μL of 1 mM deferoxamine mesylate (Calbiochem, cat.#252750), 500 μM compound 1a (Chembridge, cat.#5175092), 1 mM compound 2 (Ryan Scientific, cat.#LT01784723), or 100 μM compound 311 (Chembridge, cat.#5135701) in growth media to the assay plate. Then, 4 μL was transferred from the ‘10× lethal plate’ (described in ‘counter screening with biologically active compounds’) to the assay plate in order to induce cell death. Assay plates were incubated for 24 hours and alamar blue was added to the plates at a final concentration of 10%.

T-47D = test: NCI60 anti-cancer screening
HL-60(TB) = details: Leukemia
UACC-62 = test: NCI60 anti-cancer screening
SK-MEL-5 = test: NCI60 anti-cancer screening
SK-MEL-28 = test: NCI60 anti-cancer screening
MALME-3M = test: NCI60 anti-cancer screening
[4] = test system: BJ-TERT/LT/ST/RAS^V12 cells; test: Alamar blue growth inhibition in dilution series; assay type: cell-based, human
NCI-H23 = test: NCI60 anti-cancer screening
MOLT-4 = test: NCI60 anti-cancer screening
LOX IMVI = test: NCI60 anti-cancer screening
HS 578T = test: NCI60 anti-cancer screening
KM12 = test: NCI60 anti-cancer screening
MDA-MB-435 = test: NCI60 anti-cancer screening
SF-268 = test: NCI60 anti-cancer screening
SR = test: NCI60 anti-cancer screening
OVCAR-4 = test: NCI60 anti-cancer screening
786-0 = test: NCI60 anti-cancer screening
MCF-7 = test: NCI60 anti-cancer screening
CCRF-CEM = test: NCI60 anti-cancer screening
COLO 205 = test: NCI60 anti-cancer screening

## COC(=O)c1ccc(C2c3[nH]c4ccccc4c3CC(C(=O)OC)N2C(=O)CCl)cc1 (stereo not drawn) [Compound 27]
[1]
  degree of selectivity against HRAS^G12V: four-fold
HCT-116; HCT-116, Colon Cancer
  GI 100%: 1.48 µM
HCT-116; Homo sapiens, HCT-116
  GI50: 364 nM
HCT-116; Homo sapiens, HCT-116, read-out: LC 50%
  CC50: 3840 nM
[2]
  potency and selectivity by trypan blue exclusion (in words): confirmed Compound 27 cell growth inhibition activity and selectivity
DU-145; DU-145, Prostate Cancer
  GI 100%: 1.4 µM
DU-145; Homo sapiens, DU-145
  GI50: 308 nM
DU-145; Homo sapiens, DU-145, read-out: LC 50%
  CC50: 4010 nM
NCI-H522; Homo sapiens, NCI-H522
  GI50: 1630 nM
NCI-H522; Homo sapiens, NCI-H522, read-out: LC 50%
  CC50: 8580 nM
NCI-H522; NCI-H522, Non-small cell lung carcinoma
  GI 100%: 3.74 µM
[3]
  effect of iron chelators on compound activity / induced cell death: suppressed by all of these iron chelators moderately; also recorded: significantly inhibited
T-47D; Homo sapiens, T47D
  GI50: 1640 nM
T-47D; Homo sapiens, T47D, read-out: LC 50%
  CC50: > 10000 nM
T-47D; T-47D, Breast Cancer
  GI 100%: 5.16 µM
HL-60(TB)
  GI 100%: 0.537 µM
UACC-62; Homo sapiens, UACC-62
  GI50: 1210 nM
UACC-62; Homo sapiens, UACC-62, read-out: LC 50%
  CC50: 5040 nM
UACC-62; UACC-62, Melanoma
  GI 100%: 2.47 µM
SK-MEL-5; Homo sapiens, SK-MEL-5
  GI50: 1380 nM
SK-MEL-5; Homo sapiens, SK-MEL-5, read-out: LC 50%
  CC50: 5160 nM
SK-MEL-5; SK-MEL-5, Melanoma
  GI 100%: 2.67 µM
SK-MEL-28; Homo sapiens, SK-MEL-28
  GI50: 1620 nM
SK-MEL-28; Homo sapiens, SK-MEL-28, read-out: LC 50%
  CC50: 6760 nM
SK-MEL-28; SK-MEL-28, Melanoma
  GI 100%: 3.31 µM
MALME-3M; Homo sapiens, Malme-3M
  GI50: 406 nM
MALME-3M; Homo sapiens, Malme-3M, read-out: LC 50%
  CC50: 4600 nM
MALME-3M; MALME-3M, Melanoma
  GI 100%: 1.53 µM
[4]
  concentration at which growth was inhibited (as low as): ≥ 0.01 µg/mL
[4]; 48 hours
  concentration at which growth was inhibited (as low as): ≥ 0.01 µg/mL
NCI-H23; Homo sapiens, NCI-H23
  GI50: 1150 nM
NCI-H23; Homo sapiens, NCI-H23, read-out: LC 50%
  CC50: 7590 nM
NCI-H23; NCI-H23, Non-small cell lung carcinoma
  GI 100%: 2.95 µM
MOLT-4; Homo sapiens, MOLT-4
  GI50: 1020 nM
MOLT-4; Homo sapiens, MOLT-4, read-out: LC 50%
  CC50: 7390 nM
MOLT-4; MOLT-4, Leukemia
  GI 100%: 2.74 µM
LOX IMVI; Homo sapiens
  GI50: 182 nM
LOX IMVI; Homo sapiens, read-out: LC 50%
  CC50: 826 nM
LOX IMVI; Melanoma
  GI 100%: 0.387 µM
HS 578T; HS 578T, Breast Cancer
  GI 100%: 2.85 µM
HS 578T; Homo sapiens, Hs-578T
  GI50: 403 nM
HS 578T; Homo sapiens, Hs-578T, read-out: LC 50%
  CC50: > 10000 nM
KM12; Homo sapiens, KM12
  GI50: 188 nM
KM12; Homo sapiens, KM12, read-out: LC 50%
  CC50: 4150 nM
KM12; KM12, Colon Cancer
  GI 100%: 1.19 µM
MDA-MB-435; Homo sapiens, MDA-MB-435
  GI50: 1710 nM
MDA-MB-435; Homo sapiens, MDA-MB-435, read-out: LC 50%
  CC50: 8190 nM
MDA-MB-435; MDA-MB-435, Breast Cancer
  GI 100%: 3.74 µM
SF-268; Homo sapiens, SF-268
  GI50: 69.2 nM
SF-268; Homo sapiens, SF-268, read-out: LC 50%
  CC50: 577 nM
SF-268; SF-268, CNS Cancer
  GI 100%: 0.218 µM
SR; Homo sapiens
  GI50: 400 nM
SR; Homo sapiens, read-out: LC 50%
  CC50: 6580 nM
SR; Leukemia
  GI 100%: 1.6 µM
OVCAR-4; Homo sapiens, OVCAR-4
  GI50: 4300 nM
OVCAR-4; Homo sapiens, OVCAR-4, read-out: LC 50%
  CC50: > 10000 nM
OVCAR-4; OVCAR-4, Ovarian Cancer
  GI 100%: >10 µM
786-0; 786-0, Renal Cancer
  GI 100%: 0.473 µM
786-0; Homo sapiens, 786-0
  GI50: 60.3 nM
786-0; Homo sapiens, 786-0, read-out: LC 50%
  CC50: 2520 nM
MCF-7; Homo sapiens, MCF7
  GI50: 782 nM
MCF-7; Homo sapiens, MCF7, read-out: LC 50%
  CC50: > 10000 nM
MCF-7; MCF-7, Breast Cancer
  GI 100%: 3.98 µM
CCRF-CEM; Homo sapiens
  GI50: 19.5 nM
CCRF-CEM; Homo sapiens, read-out: LC 50%
  CC50: 95.3 nM
CCRF-CEM; Leukemia
  GI 100%: 0.0431 µM
COLO 205; COLO 205, Colon Cancer
  GI 100%: 3.44 µM
COLO 205; Homo sapiens, COLO 205
  GI50: 1670 nM
COLO 205; Homo sapiens, COLO 205, read-out: LC 50%
  CC50: 7070 nM
